Bridge positions count the residues as written; N and C are the ends. Peptide text beside a SMILES is read from it.
Test system: human embryonic lung fibroblasts
Test: Growth promoting activity in human embryonic lung fibroblasts, cell counting in a counting chamber
Type: cell-based
Conditions: for Growth stimulation in %: per cent increase over basal value with 0.67% calf serum; for No. of cells × 10^6: 0.67% calf serum
Procedure: Tests of the growth promoting activity have been performed in human embryonic lung fibroblasts and the growth promoting activity is measured by cell counting in a counting chamber and expressed as per cent increase over a basal value obtained with using 0.67% calf serum.

C[C@@H](O)[C@H](NC(=O)[C@@H]1CSSC[C@H](NC(=O)[C@H](CO)NC(=O)[C@H](CCC(=O)O)NC(=O)[C@H](CCC(N)=O)NC(=O)[C@@H](N)CC(=O)O)C(=O)N[C@@H](CCCCN)C(=O)NCC(=O)N[C@@H](CCCNC(=N)N)C(=O)N1)C(=O)N[C@@H](CCC(=O)O)C(=O)NCC(=O)N[C@@H](Cc1ccccc1)C(=O)O [tridecapeptide (cyclic)] (H-DQESCKGRCTEGF-OH; disulfide 5-9)
Growth stimulation in % (1 μg per ml medium): 14% | No. of cells × 10^6 (1 μg tridecapeptide per ml medium): 2.35 × 10^6 | Growth stimulation in % (5 μg per ml medium): 66% | No. of cells × 10^6 (5 μg tridecapeptide per ml medium): 3.4 × 10^6 | Growth stimulation in % (10 μg per ml medium): 60% | No. of cells × 10^6 (10 μg tridecapeptide per ml medium): 3.3 × 10^6 | Growth stimulation in % (25 μg per ml medium): 51% | No. of cells × 10^6 (25 μg tridecapeptide per ml medium): 3.1 × 10^6 | Growth stimulation in % (50 μg per ml medium): 31% | No. of cells × 10^6 (50 μg tridecapeptide per ml medium): 2.7 × 10^6 | Effect on total number of cells produced (dosages higher than 10 μug. per ml. of medium): slight inhibitory effect | Effect on total number of cells produced (dosages of from 1 to 10 μug. of polypeptide per ml. of medium): dose related increase

Source: patent US4058512A, “Synthetic peptides having growth promoting activity” (AB Kabi, priority 1975, dated 1977)
